Data: patent publication US10590113B2, “6-hydroxy-4-oxo-1,4-dihydropyrimidine-5-carboxamides as APJ agonists” (priority 2016, dated 2020)

biological target: T1, human APJ receptor (Homo sapiens, UniProt P35414); assay: Intracellular cAMP Accumulation Assay (APJ hcAMP, HTRF); assay type: cell-based; conditions: not given
T1 construct: expressed in transfected cells; host or cells: HEK293
T1 sequence (P35414 1-380): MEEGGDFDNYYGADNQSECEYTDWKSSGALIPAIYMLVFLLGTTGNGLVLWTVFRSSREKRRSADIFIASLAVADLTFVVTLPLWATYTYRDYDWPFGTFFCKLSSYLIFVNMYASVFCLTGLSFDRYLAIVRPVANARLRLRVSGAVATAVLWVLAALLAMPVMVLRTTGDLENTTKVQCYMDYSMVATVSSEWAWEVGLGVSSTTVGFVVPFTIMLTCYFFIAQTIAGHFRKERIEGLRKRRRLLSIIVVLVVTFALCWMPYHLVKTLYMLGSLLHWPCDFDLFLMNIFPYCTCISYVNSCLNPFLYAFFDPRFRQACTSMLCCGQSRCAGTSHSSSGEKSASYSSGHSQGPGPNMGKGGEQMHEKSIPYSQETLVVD
Procedure, shortened: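 Stably transfected HEK293 cells (5,000/well) incubated 30 min at room temperature with serially diluted compound, […] and 2 μM forskolin. cAMP measured by HTRF after 60 min with detection reagents, quantified against a cAMP standard curve; EC50 from variable-slope sigmoidal fit of inhibition of forskolin-stimulated cAMP.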

Row | EC50 | SMILES
1 | 0.01 to 10 nM | C=CCCc1nc(=O)c(C(=O)N2CC[C@@H](c3ccccc3)C2)c(O)n1-c1c(OC)cccc1OC [Example 16, (S)-2-(but-3-en-1-yl)-3-(2,6-dimethoxyphenyl)-6-hydroxy-5-(3-phenylpyrrolidine-1-carbonyl)pyrimidin-4(3H)-one]
2 | 0.01 to 10 nM | CCOCc1nc(=O)c(C(=O)N2CC[C@@H](c3ccccc3)C2)c(O)n1-c1c(OC)cccc1OC [Example 29, (S)-1-(2,6-dimethoxyphenyl)-2-(ethoxymethyl)-6-hydroxy-5-(3-phenylpyrrolidine-1-carbonyl)pyrimidin-4(1H)-one]

same assay, conditions: human APJ, cAMP accumulation; potency range class; read-out: hAPJ cAMP EC50 Potency range

Row | EC50 | SMILES
3 | 0.01 to 10 nM | CCc1cccc(CC)c1-n1c(-c2cnn(CC)c2)nc(=O)c(C(=O)N2CCC(c3ncc(Cl)cc3F)C2)c1O (single isomer, unassigned) [Example 313, 5-[3-(5-chloro-3-fluoropyridin-2-yl)pyrrolidine-1-carbonyl]-1-(2,6-diethylphenyl)-2-(1-ethyl-1H-pyrazol-4-yl)-6-hydroxy-1,4-dihydropyrimidin-4-one]
4 | 0.01 to 10 nM | COc1cccc(OC)c1-n1c(-c2ccc(Cl)nc2)nc(=O)c(C(=O)N2CCC(c3c(F)cccc3F)C2)c1O (single isomer, unassigned) [Example 281, 2-(6-chloropyridin-3-yl)-5-[3-(2,6-difluorophenyl)pyrrolidine-1-carbonyl]-1-(2,6-dimethoxyphenyl)-6-hydroxy-1,4-dihydropyrimidin-4-one]
5 | 0.01 to 10 nM | COc1cccc(OC)c1-n1c(-c2cccc(C)n2)nc(=O)c(C(=O)N2CCC(c3ncc(F)cc3F)C2)c1O (single isomer, unassigned) [Example 235, 5-[3-(3,5-difluoropyridin-2-yl)pyrrolidine-1-carbonyl]-1-(2,6-dimethoxyphenyl)-6-hydroxy-2-(6-methylpyridin-2-yl)-1,4-dihydropyrimidin-4-one]
6 | 0.01 to 10 nM | COc1cccc(OC)c1-n1c(-c2ccnc(C)c2)nc(=O)c(C(=O)N2CCC(c3c(F)cccc3F)C2)c1O (single isomer, unassigned) [Example 257, 5-[3-(2,6-difluorophenyl)pyrrolidine-1-carbonyl]-1-(2,6-dimethoxyphenyl)-6-hydroxy-2-(2-methylpyridin-4-yl)-1,4-dihydropyrimidin-4-one]
7 | 0.01 to 10 nM | COc1cccc(OC)c1-n1c(-c2ccc(C)cn2)nc(=O)c(C(=O)N2CCC(c3c(F)cccc3F)C2)c1O (single isomer, unassigned) [Example 274, 5-[3-(2,6-difluorophenyl)pyrrolidine-1-carbonyl]-1-(2,6-dimethoxyphenyl)-6-hydroxy-2-(5-methylpyridin-2-yl)-1,4-dihydropyrimidin-4-one]
8 | 10 to 100 nM | COc1cccc(OC)c1-n1c(CC2CC2)nc(=O)c(C(=O)N2CCC(c3ccc(Cl)nc3)CC2)c1O [Example 227, 5-[4-(6-chloropyridin-3-yl)piperidine-1-carbonyl]-2-(cyclopropylmethyl)-1-(2,6-dimethoxyphenyl)-6-hydroxy-1,4-dihydropyrimidin-4-one]
9 | 0.01 to 10 nM | CCc1cccc(CC)c1-n1c(-c2csc(C(C)C)n2)nc(=O)c(C(=O)N2CCC(c3ccc(F)cn3)C2)c1O (single isomer, unassigned) [Example 300, 1-(2,6-diethylphenyl)-5-[3-(5-fluoropyridin-2-yl)pyrrolidine-1-carbonyl]-6-hydroxy-2-[2-(propan-2-yl)-1,3-thiazol-4-yl]-1,4-dihydropyrimidin-4-one]
10 | 0.01 to 10 nM | COc1cccc(OC)c1-n1c(-c2nc(C)cs2)nc(=O)c(C(=O)N2CCC(c3c(F)cccc3F)C2)c1O (single isomer, unassigned) [Example 271, 5-[3-(2,6-difluorophenyl)pyrrolidine-1-carbonyl]-1-(2,6-dimethoxyphenyl)-6-hydroxy-2-(4-methyl-1,3-thiazol-2-yl)-1,4-dihydropyrimidin-4-one]
11 | 0.01 to 10 nM | COc1ccnc(-c2nc(=O)c(C(=O)N3CCC(c4ccc(F)cc4F)C3)c(O)n2-c2c(OC)cccc2OC)c1 (single isomer, unassigned) [Example 278, 5-[3-(2,4-difluorophenyl)pyrrolidine-1-carbonyl]-1-(2,6-dimethoxyphenyl)-6-hydroxy-2-(4-methoxypyridin-2-yl)-1,4-dihydropyrimidin-4-one]

same assay, conditions: human APJ, intracellular cAMP accumulation; read-out: hAPJ cAMP EC50 Potency range

Row | EC50 | SMILES
12 | 100 to 300 nM | CCCCc1nc(=O)c(C(=O)N2CC[C@H](c3ccccc3)C2)c(O)n1[C@@H](C)c1ccc(F)cc1 [Example 157, 2-butyl-3-[(1S)-1-(4-fluorophenyl)ethyl]-6-hydroxy-5-[(3R)-3-phenylpyrrolidine-1-carbonyl]-3,4-dihydropyrimidin-4-one]
13 | 0.01 to 10 nM | CC[C@@H](c1cc(F)cc(F)c1)n1c(-c2nc(C)cs2)nc(=O)c(C(=O)N2CCC(c3ccc(Cl)cn3)C2)c1O (single isomer, unassigned) [Example 209]
14 | 0.01 to 10 nM | COc1cccc(OC)c1-n1c(COC(C)C)nc(=O)c(C(=O)N2CCC(c3ccc(F)cc3F)C2)c1O (single isomer, unassigned) [Example 163, 5-[3-(2,4-difluorophenyl)pyrrolidine-1-carbonyl]-1-(2,6-dimethoxyphenyl)-6-hydroxy-2-[(propan-2-yloxy)methyl]-1,4-dihydropyrimidin-4-one]
15 | 0.01 to 10 nM | CCOCc1nc(=O)c(C(=O)N2CCC(c3cccc(F)c3)C2)c(O)n1-c1c(OC)cccc1OC (single isomer, unassigned) [Example 84, 1-(2,6-dimethoxyphenyl)-2-(ethoxymethyl)-5-[3-(3-fluorophenyl)pyrrolidine-1-carbonyl]-6-hydroxy-1,4-dihydropyrimidin-4-one]
16 | 0.01 to 10 nM | CCCCc1nc(=O)c(C(=O)N2CCN(Cc3cccc(F)c3)CC2)c(O)n1-c1c(OC)cccc1OC [Example 69, 2-butyl-1-(2,6-dimethoxyphenyl)-5-{4-[(3-fluorophenyl)methyl]piper-azine-1-carbonyl}-6-hydroxy-1,4-dihydropyrimidin-4-one]
17 | 0.01 to 10 nM | CCOCc1nc(=O)c(C(=O)N2CCC(c3ccccn3)C2)c(O)n1-c1c(OC)cccc1OC (single isomer, unassigned) [Example 55, 1-(2,6-dimethoxyphenyl)-2-(ethoxymethyl)-6-hydroxy-5-[3-(pyridin-2-yl)pyrrolidine-1-carbonyl]-1,4-dihydropyrimidin-4-one]
18 | 0.01 to 10 nM | COc1cccc(OC)c1-n1c(CCC2CC2)nc(=O)c(C(=O)N2CCC(c3ccc(F)cn3)C2)c1O (single isomer, unassigned) [Example 177, 2-(2-cyclopropylethyl)-1-(2,6-dimethoxyphenyl)-5-[3-(5-fluoropyridin-2-yl)pyrrolidine-1-carbonyl]-6-hydroxy-1,4-dihydropyrimidin-4-one]
19 | 0.01 to 10 nM | COc1cccc(OC)c1-n1c(CCC2CC2)nc(=O)c(C(=O)N2CCC(c3ccc(Cl)cn3)C2)c1O (single isomer, unassigned) [Example 170, 5-[3-(5-chloropyridin-2-yl)pyrrolidine-1-carbonyl]-2-(2-cyclopropylethyl)-1-(2,6-dimethoxyphenyl)-6-hydroxy-1,4-dihydropyrimidin-4-one]
20 | 0.01 to 10 nM | COc1cccc(OC)c1-n1c(COC(C)C)nc(=O)c(C(=O)N2CCC(c3ccccc3C(F)(F)F)C2)c1O (single isomer, unassigned) [Example 99, 1-(2,6-dimethoxyphenyl)-6-hydroxy-2-[(propan-2-yloxy)methyl]-5-{3-[2-(trifluoromethyl)phenyl]pyrrolidine-l-carbonyl}-1,4-dihydropyrimidin-4-one]
21 | 10 to 100 nM | CCCCc1nc(=O)c(C(=O)N2CC[C@@H](c3ccccc3)C2)c(O)n1C(C)c1ccccc1Cl (stereo partly drawn) [Example 133, 2-butyl-3-[1-(2-chlorophenyl)ethyl]-6-hydroxy-5-[(3S)-3-phenylpyrrolidine-1-carbonyl]-3,4-dihydropyrimidin-4-one]
22 | 10 to 100 nM | CCCCc1nc(=O)c(C(=O)N2CC[C@@H](c3ccccc3)C2)c(O)n1C(c1ccccc1)C(C)C (stereo partly drawn) [Example 129, 2-butyl-6-hydroxy-3-(2-methyl-1-phenylpropyl)-5-[(3S)-3-phenylpyrrolidine-1-carbonyl]-3,4-dihydropyrimidin-4-one]
23 | 0.01 to 10 nM | CC[C@@H](c1cc(F)cc(F)c1)n1c(-c2ccn(CC)n2)nc(=O)c(C(=O)N2CCC(c3ccc(Cl)cn3)C2)c1O (single isomer, unassigned) [Example 213]
24 | 10 to 100 nM | CCCCc1nc(=O)c(C(=O)N2CC[C@@H](c3ccccc3)C2)c(O)n1C(C)c1ccccc1 (stereo partly drawn) [Example 136, 2-butyl-6-hydroxy-3-(1-phenylethyl)-5-[(3S)-3-phenylpyrrolidine-1-carbonyl]-3,4-dihydropyrimidin-4-one]
25 | 0.01 to 10 nM | CC[C@@H](c1cc(F)cc(F)c1)n1c(-c2cnn(C)c2)nc(=O)c(C(=O)N2CCC(c3ccc(F)cc3)C2)c1O (single isomer, unassigned) [Example 197]
26 | 0.01 to 10 nM | CC[C@@H](c1cc(F)cc(F)c1)n1c(-c2ccn(C)n2)nc(=O)c(C(=O)N2CCC(c3ncc(F)cc3F)C2)c1O (single isomer, unassigned) [Example 184]

same assay, conditions: read-out: hAPJ cAMP EC50 Potency range

Row | EC50 | SMILES
27 | 0.01 to 10 nM | CCCCc1nc(=O)c(C(=O)N2CCC(c3ncccc3F)C2)c(O)n1-c1c(OC)cccc1OC (single isomer, unassigned) [Example 367, 2-butyl-1-(2,6-dimethoxyphenyl)-5-(3-(3-fluoropyridin-2-yl)pyrrolidine-1-carbonyl)-6-hydroxypyrimidin-4(1H)-one]
